Our source for the IC50 and melting point values is patent publication US20100105655A1, “NOVEL COMPOUNDS 515” (ASTRAZENECA AB, priority 2008, published 2010).

One data set deals with T1, human IGF1R (Homo sapiens, UniProt P08069).
T1 construct: expressed in transfected cells; host or cells: R+ cells (R- mouse fibroblasts transfected with human IGF1R)
T1 sequence (P08069 31-1367): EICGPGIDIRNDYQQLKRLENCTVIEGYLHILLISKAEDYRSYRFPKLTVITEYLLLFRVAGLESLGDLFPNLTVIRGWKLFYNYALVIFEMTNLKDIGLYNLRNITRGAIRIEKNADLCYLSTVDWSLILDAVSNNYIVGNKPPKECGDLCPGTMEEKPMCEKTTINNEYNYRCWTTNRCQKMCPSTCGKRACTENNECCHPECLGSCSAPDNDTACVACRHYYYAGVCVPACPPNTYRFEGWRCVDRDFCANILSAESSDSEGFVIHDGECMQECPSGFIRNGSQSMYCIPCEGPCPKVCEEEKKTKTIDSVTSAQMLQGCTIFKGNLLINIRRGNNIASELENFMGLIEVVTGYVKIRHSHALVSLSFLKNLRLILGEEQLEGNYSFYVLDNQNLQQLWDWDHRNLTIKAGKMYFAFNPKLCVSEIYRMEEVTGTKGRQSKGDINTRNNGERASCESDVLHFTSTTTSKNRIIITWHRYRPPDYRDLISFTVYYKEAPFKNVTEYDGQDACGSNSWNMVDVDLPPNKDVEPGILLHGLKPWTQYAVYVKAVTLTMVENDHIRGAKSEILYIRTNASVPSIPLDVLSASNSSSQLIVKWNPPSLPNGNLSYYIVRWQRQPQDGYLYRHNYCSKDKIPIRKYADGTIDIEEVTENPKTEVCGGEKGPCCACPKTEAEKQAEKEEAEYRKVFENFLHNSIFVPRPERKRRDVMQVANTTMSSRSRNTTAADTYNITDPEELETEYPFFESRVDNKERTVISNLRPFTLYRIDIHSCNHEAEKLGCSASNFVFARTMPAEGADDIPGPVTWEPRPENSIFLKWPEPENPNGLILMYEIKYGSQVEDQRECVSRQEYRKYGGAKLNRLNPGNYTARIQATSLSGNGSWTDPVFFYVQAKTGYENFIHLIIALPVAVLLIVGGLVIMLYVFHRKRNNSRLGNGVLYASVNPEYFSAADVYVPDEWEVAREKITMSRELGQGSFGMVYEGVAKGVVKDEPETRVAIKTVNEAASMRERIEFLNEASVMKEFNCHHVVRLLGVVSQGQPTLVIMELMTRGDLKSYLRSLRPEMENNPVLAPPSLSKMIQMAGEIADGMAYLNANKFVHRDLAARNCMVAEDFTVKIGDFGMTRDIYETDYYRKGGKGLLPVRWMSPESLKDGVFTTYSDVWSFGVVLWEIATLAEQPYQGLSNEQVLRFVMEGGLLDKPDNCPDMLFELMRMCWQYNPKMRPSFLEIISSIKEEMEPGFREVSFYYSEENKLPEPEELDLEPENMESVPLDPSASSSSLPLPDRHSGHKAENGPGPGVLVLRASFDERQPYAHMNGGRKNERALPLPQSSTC
Kind of data set: Inhibition of insulin-like growth factor-1 receptor phosphorylation (immunofluorescence end point cell assay, R+ cells). The conditions noted are these: R+ cells stimulated with 30 nM IGF1. The data set is classed as cell-based. How it is done: This immunofluorescence end point cell assay measures the ability of a test compound to reduce the measured levels of IGF phosphorylation after IGF1 stimulation in R^+ cells. R^+ cells are derived by transfection of R^− mouse fibroblast cells with human IGF1R. R^+ cells are routinely cultured in DMEM growth medium (Gibco BRL, 41966) containing 2 mM L-Glutamine (Invitrogen Code no. 25030-024) and 10% (v/v) foetal bovine serum (FBS)) in a 5% CO2 air incubator at 37° C.
To undertake the assay, the R^+ cells are seeded at 5×10^3 cells/well in DMEM plus 1% foetal calf serum, 1% L-glutamine in 96-well black Packard View plates (PerkinElmer 6005182) and incubated at 37° C. (+5% CO2) in a humidified incubator. […]
Following the compound treatment, the R^+ cells are stimulated with a final concentration of 30 nM IGF1 (Gropep IM001) for 20 minutes at 37° C. […] Additionally, in-house antibodies raised against phospho IGF1R were also used at a suitable titre determined for each batch. […]
The Green Fluorescent phospho IGF1R-associated signal in each well was measured using an Acumen Explorer HTS Reader (TTP Labtech Ltd., Cambridge). Phospho IGF1R-associated fluorescence emission can be detected at 530 nm following excitation at 488 nm. […] These fluorescent objects can be quantified and provide a measure of the phospho IGF1R levels in cells. […]
For `COc1cc(N2CC(C)NC(C)C2)ccc1Nc1ncc(Cl)c(-c2cnc3ccccn23)n1` (stereo not shown) [5-chloro-N-[4-(3,5-dimethylpiperazin-1-yl)-2-methoxy-phenyl]-4-imidazo[1,2-a]pyridin-3-yl-pyrimidin-2-amine], the midpoint of inhibition, the IC50, lay at 4 nM.

A further data set deals with T2, IGFR kinase (Homo sapiens, UniProt P08069).
T2 construct: purchased Millipore
T2 sequence (P08069 31-1367): as above
Kind of data set: Enzyme assay (c), IGFR kinase, Caliper LabChip. The conditions noted are these: 30 nM IGFR kinase, 6 uM ATP, 3 uM peptide mix; read-out: IGFR IC50. The data set is classed as biochemical.
For the compound `COc1cc(N2CCN(CCO)CC2)ccc1Nc1ncc(F)c(-c2cnc3ccccn23)n1` [Example 81, 2-[4-[4-[(5-fluoro-4-imidazo[1,2-a]pyridin-3-yl-pyrimidin-2-yl)amino]-3-methoxy-phenyl]piperazin-1-yl]ethanol], the IC50 amounted to 30 nM.
On the same count and under the same terms, then `COc1cc(N2CCN(CCO)[C@H](C)C2)ccc1Nc1ncc(C)c(-c2cnc3ccccn23)n1` [Example 270, 2-[(2R)-4-[4-[(4-imidazo[1,2-a]pyridin-3-yl-5-methyl-pyrimidin-2-yl)amino]-3-methoxy-phenyl]-2-methyl-piperazin-1-yl]ethanol], with 43 nM; and `COc1cc(N2CCN(CCO)[C@@H](C)C2)ccc1Nc1ncc(C)c(-c2cnc3ccccn23)n1` [Example 271, 2-[(2S)-4-[4-[(4-imidazo[1,2-a]pyridin-3-yl-5-methyl-pyrimidin-2-yl)amino]-3-methoxy-phenyl]-2-methyl-piperazin-1-yl]ethanol], with 190 nM; and `COc1cc(N2CCN(CCO)[C@H](C)C2)ccc1Nc1ncc(F)c(-c2cnc3ccccn23)n1` [Example 272, 2-[(2R)-4-[4-[(5-fluoro-4-imidazo[1,2-a]pyridin-3-yl-pyrimidin-2-yl)amino]-3-methoxy-phenyl]-2-methyl-piperazin-1-yl]ethanol], with 270 nM.
For the compound `COc1cc(N2CCN(CCO)[C@@H](C)C2)ccc1Nc1ncc(F)c(-c2cnc3ccccn23)n1` [Example 273, 2-[(2S)-4-[4-[(5-fluoro-4-imidazo[1,2-a]pyridin-3-yl-pyrimidin-2-yl)amino]-3-methoxy-phenyl]-2-methyl-piperazin-1-yl]ethanol], the IC50 stood at 210 nM.
Same read-out and setting: then `COc1cc(N2CCN(C(C)CO)CC2)ccc1Nc1ncc(C)c(-c2cnc3ccccn23)n1` (stereo not shown) [Example 274, 2-[4-[4-[(4-imidazo[1,2-a]pyridin-3-yl-5-methyl-pyrimidin-2-yl)amino]-3-methoxy-phenyl]piperazin-1-yl]propan-1-ol], with 14 nM.
The same measure, in the same setting: to `COc1cc(N2CCN(C(=O)CN3CCOCC3)CC2)ccc1Nc1ncc(Cl)c(-c2cnc3ccccn23)n1` [Example 275, 1-[4-[4-[(5-chloro-4-imidazo[1,2-a]pyridin-3-yl-pyrimidin-2-yl)amino]-3-methoxy-phenyl]piperazin-1-yl]-2-morpholino-ethanone] belongs 9 nM; to `COc1cc(C(CO)CNC(C)=O)ccc1Nc1ncc(Cl)c(-c2cnc3ccccn23)n1` (stereo not shown) [Example 276, N-[2-[4-[(5-chloro-4-imidazo[1,2-a]pyridin-3-yl-pyrimidin-2-yl)amino]-3-methoxy-phenyl]-3-hydroxy-propyl]acetamide], 15 nM; to `COc1cc(C2CN(C(C)=O)C2)ccc1Nc1ncc(Cl)c(-c2cnc3ccccn23)n1` [Example 277, 1-[3-[4-[(5-chloro-4-imidazo[1,2-a]pyridin-3-yl-pyrimidin-2-yl)amino]-3-methoxy-phenyl]azetidin-1-yl]ethanone], 16 nM.
The same measure, in the same setting: to `COc1cc(N2CCN(C(C)=O)CC2)c(C)cc1Nc1ncc(Cl)c(-c2cnc3ccccn23)n1` [Example 278, 1-[4-[4-[(5-chloro-4-imidazo[1,2-a]pyridin-3-yl-pyrimidin-2-yl)amino]-5-methoxy-2-methyl-phenyl]piperazin-1-yl]ethanone] belongs 8 nM; to `COc1cc(N2CCN(CCO)CC2)c(C)cc1Nc1ncc(Cl)c(-c2cnc3ccccn23)n1` [Example 279, 2-[4-[4-[(5-chloro-4-imidazo[1,2-a]pyridin-3-yl-pyrimidin-2-yl)amino]-5-methoxy-2-methyl-phenyl]piperazin-1-yl]ethanol], 8 nM.

Tested on in another data set: not given
Assay: not given
Conditions: not given
Take `COc1cc(N2CCN(CCO)CC2)ccc1Nc1ncc(F)c(-c2cnc3ccccn23)n1` [Example 81, 2-[4-[4-[(5-fluoro-4-imidazo[1,2-a]pyridin-3-yl-pyrimidin-2-yl)amino]-3-methoxy-phenyl]piperazin-1-yl]ethanol]: the melting point is ~ 171.3 °C.
